Measured values as given in PubChem BioAssay (NCI).
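48-hour exposure; five concentrations; linearly interpolated endpoints. Here, GI50 denotes the concentration required for 50% inhibition of growth. TGI marks complete inhibition of growth.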

What was measured:
Test in all cases: NCI anticancer screen, dose series, 48 h
786-0 renal = test system: 786-0 renal
A498 renal = test system: A498 renal
A549 NSCLC = test system: A549 NSCLC
ACHN renal = test system: ACHN renal
BT-549 breast = test system: BT-549 breast
CAKI-1 renal = test system: CAKI-1 renal
CCRF-CEM leukemia = test system: CCRF-CEM leukemia
COLO 205 colon = test system: COLO 205 colon
DU-145 prostate = test system: DU-145 prostate
EKVX NSCLC = test system: EKVX NSCLC
HCC-2998 colon = test system: HCC-2998 colon
HCT-116 colon = test system: HCT-116 colon
HCT-15 colon = test system: HCT-15 colon
HL-60(TB) leukemia = test system: HL-60(TB) leukemia
HOP-62 NSCLC = test system: HOP-62 NSCLC
HOP-92 NSCLC = test system: HOP-92 NSCLC
HS 578T breast = test system: HS 578T breast
HT29 colon = test system: HT29 colon
IGROV1 ovarian = test system: IGROV1 ovarian
K-562 leukemia = test system: K-562 leukemia
KM12 colon = test system: KM12 colon
LOX IMVI melanoma = test system: LOX IMVI melanoma
M14 melanoma = test system: M14 melanoma
MALME-3M melanoma = test system: MALME-3M melanoma
MCF7 breast = test system: MCF7 breast
MDA-MB-231 breast = test system: MDA-MB-231 breast
MDA-MB-435 = test system: MDA-MB-435
MOLT-4 leukemia = test system: MOLT-4 leukemia
NCI-H226 lung = test system: NCI-H226 lung
NCI-H23 lung = test system: NCI-H23 lung
NCI-H460 lung = test system: NCI-H460 lung
NCI-H522 lung = test system: NCI-H522 lung
NCI/ADR-RES ovarian = test system: NCI/ADR-RES ovarian
OVCAR-3 ovarian = test system: OVCAR-3 ovarian
OVCAR-4 ovarian = test system: OVCAR-4 ovarian
OVCAR-5 ovarian = test system: OVCAR-5 ovarian
OVCAR-8 ovarian = test system: OVCAR-8 ovarian
PC-3 prostate = test system: PC-3 prostate
RPMI-8226 leukemia = test system: RPMI-8226 leukemia
RXF 393 renal = test system: RXF 393 renal
SF-268 CNS = test system: SF-268 CNS
SF-295 CNS = test system: SF-295 CNS
SF-539 CNS = test system: SF-539 CNS
SK-MEL-2 melanoma = test system: SK-MEL-2 melanoma
SK-MEL-28 melanoma = test system: SK-MEL-28 melanoma
SK-MEL-5 melanoma = test system: SK-MEL-5 melanoma
SK-OV-3 ovarian = test system: SK-OV-3 ovarian
SN12C renal = test system: SN12C renal
SNB-19 CNS = test system: SNB-19 CNS
SNB-75 CNS = test system: SNB-75 CNS
SW-620 colon = test system: SW-620 colon
T-47D breast = test system: T-47D breast
TK-10 renal = test system: TK-10 renal
U251 CNS = test system: U251 CNS
UACC-257 melanoma = test system: UACC-257 melanoma
UACC-62 melanoma = test system: UACC-62 melanoma
UO-31 renal = test system: UO-31 renal

C=C1C(=O)c2sccc2C(c2ccc(OC)c(OC)c2)C1COC(C)=O (configuration not stated)
GI50 (786-0 renal): 297 nM | TGI (786-0 renal): 3990 nM | GI50 (A498 renal): 2130 nM | TGI (A498 renal): 7200 nM | GI50 (A549 NSCLC): 3250 nM | TGI (A549 NSCLC): 11500 nM | GI50 (ACHN renal): 1860 nM | GI50 (BT-549 breast): 2110 nM | TGI (BT-549 breast): 4790 nM | GI50 (CAKI-1 renal): 2100 nM | TGI (CAKI-1 renal): 6570 nM | GI50 (CCRF-CEM leukemia): 66.1 nM | TGI (CCRF-CEM leukemia): 777 nM | GI50 (COLO 205 colon): 2250 nM | TGI (COLO 205 colon): 4890 nM | GI50 (DU-145 prostate): 761 nM | TGI (DU-145 prostate): 2040 nM | GI50 (EKVX NSCLC): 8370 nM | TGI (EKVX NSCLC): 21300 nM | GI50 (HCC-2998 colon): 2890 nM | TGI (HCC-2998 colon): 7560 nM | GI50 (HCT-116 colon): 1620 nM | TGI (HCT-116 colon): 10300 nM | GI50 (HCT-15 colon): 2030 nM | GI50 (HL-60(TB) leukemia): 2980 nM | TGI (HL-60(TB) leukemia): > 100000 nM | GI50 (HOP-62 NSCLC): 6540 nM | TGI (HOP-62 NSCLC): 15700 nM | GI50 (HOP-92 NSCLC): 2460 nM | TGI (HOP-92 NSCLC): 6910 nM | GI50 (HS 578T breast): 2540 nM | TGI (HS 578T breast): 8400 nM | GI50 (HT29 colon): 1360 nM | TGI (HT29 colon): 4010 nM | GI50 (IGROV1 ovarian): 2270 nM | TGI (IGROV1 ovarian): 5670 nM | GI50 (K-562 leukemia): 200 nM | TGI (K-562 leukemia): > 29700 nM | GI50 (KM12 colon): 1210 nM | TGI (KM12 colon): > 25700 nM | GI50 (LOX IMVI melanoma): 173 nM | TGI (M14 melanoma): 3100 nM | GI50 (MALME-3M melanoma): 1500 nM | TGI (MALME-3M melanoma): 6410 nM | GI50 (MCF7 breast): 953 nM | TGI (MCF7 breast): 2980 nM | GI50 (MDA-MB-231 breast): 551 nM | TGI (MDA-MB-231 breast): 2480 nM | GI50 (MDA-MB-435): 1920 nM | TGI (MDA-MB-435): 6180 nM | GI50 (MOLT-4 leukemia): 219 nM | TGI (MOLT-4 leukemia): 733 nM | GI50 (NCI-H226 lung): 2930 nM | TGI (NCI-H226 lung): 8560 nM | GI50 (NCI-H23 lung): 1540 nM | TGI (NCI-H23 lung): 4940 nM | GI50 (NCI-H460 lung): 3720 nM | TGI (NCI-H460 lung): 14000 nM | GI50 (NCI-H522 lung): 1130 nM | TGI (NCI-H522 lung): 4040 nM | GI50 (NCI/ADR-RES ovarian): 2360 nM | GI50 (OVCAR-3 ovarian): 1670 nM | TGI (OVCAR-3 ovarian): 5790 nM | GI50 (OVCAR-4 ovarian): 4810 nM | TGI (OVCAR-4 ovarian): 19500 nM | GI50 (OVCAR-5 ovarian): 2420 nM | TGI (OVCAR-5 ovarian): 9290 nM | GI50 (OVCAR-8 ovarian): 2740 nM | TGI (OVCAR-8 ovarian): 8140 nM | GI50 (PC-3 prostate): 1300 nM | TGI (PC-3 prostate): 2810 nM | TGI (RPMI-8226 leukemia): 36.6 nM | GI50 (RXF 393 renal): 595 nM | TGI (RXF 393 renal): 1990 nM | GI50 (SF-268 CNS): 3440 nM | TGI (SF-268 CNS): 12900 nM | GI50 (SF-295 CNS): 4430 nM | TGI (SF-295 CNS): 16500 nM | GI50 (SF-539 CNS): 1610 nM | TGI (SF-539 CNS): 3270 nM | GI50 (SK-MEL-2 melanoma): 10800 nM | TGI (SK-MEL-2 melanoma): 23000 nM | GI50 (SK-MEL-28 melanoma): 2150 nM | TGI (SK-MEL-28 melanoma): 4420 nM | GI50 (SK-MEL-5 melanoma): 1900 nM | TGI (SK-MEL-5 melanoma): 4740 nM | GI50 (SK-OV-3 ovarian): 5460 nM | TGI (SK-OV-3 ovarian): 20000 nM | GI50 (SN12C renal): 1330 nM | TGI (SN12C renal): 3240 nM | GI50 (SNB-19 CNS): 8470 nM | TGI (SNB-19 CNS): 32700 nM | GI50 (SNB-75 CNS): 8390 nM | TGI (SNB-75 CNS): 28800 nM | GI50 (SW-620 colon): 656 nM | TGI (SW-620 colon): 2510 nM | GI50 (T-47D breast): 2240 nM | TGI (T-47D breast): 5770 nM | GI50 (TK-10 renal): 1340 nM | TGI (TK-10 renal): 4850 nM | GI50 (U251 CNS): 1620 nM | GI50 (UACC-257 melanoma): 1930 nM | TGI (UACC-257 melanoma): 5770 nM | GI50 (UACC-62 melanoma): 1430 nM | TGI (UACC-62 melanoma): 3170 nM | GI50 (UO-31 renal): 1810 nM | TGI (UO-31 renal): 3390 nM
